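Method: 48-hour compound exposure of cells in 96-well plates, five concentrations, linear interpolation of endpoints. Abbreviation: GI50, concentration required for 50% inhibition of growth.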 Calls of active or inactive are those of the source. No stated cut-off is given here; in the data, active = GI50 up to about 1.1 µM and inactive = higher.
What was measured:
Experiment in all cases: inhibition of tumour cell growth, NCI panel, 48 h
ACHN = tested on: ACHN
HCC 2998 = tested on: HCC 2998
HCT-116 = tested on: HCT-116
IGROV-1 = tested on: IGROV-1
KM12 = tested on: KM12
LOX IMVI = tested on: LOX IMVI
Malme-3M = tested on: Malme-3M
NCI-H226 = tested on: NCI-H226
NCI-H23 = tested on: NCI-H23
NCI-H522 = tested on: NCI-H522
OVCAR-8 = tested on: OVCAR-8
SF-539 = tested on: SF-539
SNB-19 = tested on: SNB-19
SW-620 = tested on: SW-620
TK-10 = tested on: TK-10
U-251 = tested on: U-251
UACC-257 = tested on: UACC-257
UACC-62 = tested on: UACC-62
UO-31 = tested on: UO-31
MCF7 = tested on: MCF7

| SMILES | GI50 (ACHN) | GI50 (HCC 2998) | GI50 (HCT-116) | GI50 (IGROV-1) | GI50 (KM12) | GI50 (LOX IMVI) | GI50 (Malme-3M) | GI50 (NCI-H226) | GI50 (NCI-H23) | GI50 (NCI-H522) | GI50 (OVCAR-8) | GI50 (SF-539) | GI50 (SNB-19) | GI50 (SW-620) | GI50 (TK-10) | GI50 (U-251) | GI50 (UACC-257) | GI50 (UACC-62) | GI50 (UO-31) | GI50 (MCF7) |
| --- | --- | --- | --- | --- | --- | --- | --- | --- | --- | --- | --- | --- | --- | --- | --- | --- | --- | --- | --- | --- |
| Cc1cccc(NC(=O)C(=O)C(C(=O)c2ccc3ccccc3c2)C2OC(=O)c3ccccc32)c1C (stereo not given) | 28.1 µM (inactive) | 6.03 µM (inactive) | 9.68 µM (inactive) | 17.5 µM (inactive) | 20.8 µM (inactive) | 13.2 µM (inactive) | 6.05 µM (inactive) | 2.39 µM (inactive) | 8.99 µM (inactive) | 14.1 µM (inactive) | 10.3 µM (inactive) | 6.53 µM (inactive) | 5.4 µM (inactive) | 7.98 µM (inactive) | 23.3 µM (inactive) | 5.21 µM (inactive) | 10.7 µM (inactive) | 10.4 µM (inactive) | 14.5 µM (inactive) | – |
| O=[As](O)(O)c1cc(/N=N/c2ccc(-c3ccc(/N=N/c4cc([As](=O)(O)O)c(O)cc4O)cc3)cc2)c(O)cc1O | > 100 µM (inactive) | > 100 µM (inactive) | > 100 µM (inactive) | > 100 µM (inactive) | > 100 µM (inactive) | > 100 µM (inactive) | > 69.2 µM (inactive) | > 100 µM (inactive) | > 100 µM (inactive) | > 100 µM (inactive) | > 100 µM (inactive) | > 74.1 µM (inactive) | > 100 µM (inactive) | > 100 µM (inactive) | > 100 µM (inactive) | > 100 µM (inactive) | > 100 µM (inactive) | > 100 µM (inactive) | > 100 µM (inactive) | – |
| CCC12C=CCN3CCC4(C(=C(C(=O)OC)C1)Nc1ccccc14)[C@H]32 (stereo not given in full) | 64 µM (inactive) | 33.3 µM (inactive) | 30.8 µM (inactive) | 39.1 µM (inactive) | 25.8 µM (inactive) | 20.8 µM (inactive) | 42.4 µM (inactive) | 31.8 µM (inactive) | 28.4 µM (inactive) | 22.1 µM (inactive) | – | 20.5 µM (inactive) | 26.6 µM (inactive) | 26 µM (inactive) | 68.9 µM (inactive) | – | 34.4 µM (inactive) | 21.3 µM (inactive) | 65.2 µM (inactive) | – |
| CO[C@@]12CC(=O)/C(=C(O)\C=C\c3ccccc3)C(=O)[C@]1(OC)Cc1ccccc1O2 | 25.4 µM (inactive) | 22.3 µM (inactive) | 30.1 µM (inactive) | 54 µM (inactive) | 19.8 µM (inactive) | 32.3 µM (inactive) | 91 µM (inactive) | 22.5 µM (inactive) | 20.6 µM (inactive) | 29.9 µM (inactive) | 22.3 µM (inactive) | 24 µM (inactive) | 30.1 µM (inactive) | 31.3 µM (inactive) | 42.8 µM (inactive) | 21.1 µM (inactive) | 30.1 µM (inactive) | 21.9 µM (inactive) | 40 µM (inactive) | – |
| O=C(O)C1C2CCC(O2)C1C(=O)N1CCCCC1 (stereo not given) | 4.54 µM (inactive) | 4.11 µM (inactive) | 10.2 µM (inactive) | 30.5 µM (inactive) | 16.2 µM (inactive) | 10.2 µM (inactive) | 10.6 µM (inactive) | 5.09 µM (inactive) | 11.7 µM (inactive) | 4.88 µM (inactive) | 4.61 µM (inactive) | 9.4 µM (inactive) | 15.5 µM (inactive) | 3.43 µM (inactive) | 2.99 µM (inactive) | 4.2 µM (inactive) | 17.2 µM (inactive) | 5.26 µM (inactive) | 19.9 µM (inactive) | – |
| COC1=CCC=C(C[C@@H]2NCCc3cc(OC)c(OC)cc32)C1 | > 100 µM (inactive) | > 100 µM (inactive) | > 100 µM (inactive) | > 100 µM (inactive) | > 100 µM (inactive) | > 100 µM (inactive) | > 100 µM (inactive) | 32.1 µM (inactive) | > 100 µM (inactive) | > 100 µM (inactive) | > 100 µM (inactive) | > 100 µM (inactive) | > 100 µM (inactive) | > 100 µM (inactive) | > 100 µM (inactive) | > 100 µM (inactive) | > 100 µM (inactive) | > 100 µM (inactive) | > 100 µM (inactive) | – |
| CN1c2ccc(Cl)cc2C(=O)NC1c1ccc([N+](=O)[O-])s1 (stereo not given) | 19.4 µM (inactive) | 16.1 µM (inactive) | 15.2 µM (inactive) | 15.4 µM (inactive) | 16.4 µM (inactive) | 14.5 µM (inactive) | – | – | – | – | 15.8 µM (inactive) | 18.1 µM (inactive) | 30.1 µM (inactive) | 32.7 µM (inactive) | 20.2 µM (inactive) | 16.4 µM (inactive) | 15.1 µM (inactive) | 11.4 µM (inactive) | 12.1 µM (inactive) | 19.6 µM (inactive) |
| CCOC(=O)C(Cc1c[nH]c2cc([N+](=O)[O-])ccc12)NS(=O)(=O)c1ccc2ccccc2c1 (stereo not given) | 23.6 µM (inactive) | 24.2 µM (inactive) | 17.2 µM (inactive) | 21.4 µM (inactive) | 17.1 µM (inactive) | 17.5 µM (inactive) | > 10 µM (inactive) | 16.7 µM (inactive) | 21.9 µM (inactive) | 16.3 µM (inactive) | 21.4 µM (inactive) | 17.5 µM (inactive) | 37.9 µM (inactive) | 21.2 µM (inactive) | 26.4 µM (inactive) | 17.6 µM (inactive) | 15.3 µM (inactive) | 16.7 µM (inactive) | 22.8 µM (inactive) | – |
| Cc1csc(=S)n1OC(=O)NC1CCCCC1 | > 100 µM (inactive) | > 100 µM (inactive) | > 58.2 µM (inactive) | > 100 µM (inactive) | > 80.9 µM (inactive) | 65.3 µM (inactive) | > 100 µM (inactive) | > 100 µM (inactive) | > 21.9 µM (inactive) | 18.1 µM (inactive) | > 100 µM (inactive) | > 100 µM (inactive) | > 100 µM (inactive) | > 56.8 µM (inactive) | > 100 µM (inactive) | 63.8 µM (inactive) | > 60.1 µM (inactive) | > 38.1 µM (inactive) | > 100 µM (inactive) | – |
| ClC1(Cl)C(c2ccccc2)C1c1ccccc1 (stereo not given) | 25.6 µM (inactive) | 11.1 µM (inactive) | 23.9 µM (inactive) | – | 21.4 µM (inactive) | 28.2 µM (inactive) | – | 14.6 µM (inactive) | 24.6 µM (inactive) | – | 21.2 µM (inactive) | – | 25.9 µM (inactive) | 22.2 µM (inactive) | 54 µM (inactive) | 41.3 µM (inactive) | 30.7 µM (inactive) | 29.5 µM (inactive) | 26.9 µM (inactive) | 56 µM (inactive) |
| O=C(c1ccco1)N(C(=S)OCc1ccccn1)c1ccccc1 | 86.1 µM (inactive) | – | > 100 µM (inactive) | 50.1 µM (inactive) | > 100 µM (inactive) | > 100 µM (inactive) | 17.2 µM (inactive) | 29.6 µM (inactive) | > 100 µM (inactive) | – | > 100 µM (inactive) | 36 µM (inactive) | > 100 µM (inactive) | > 100 µM (inactive) | > 100 µM (inactive) | > 100 µM (inactive) | > 100 µM (inactive) | > 100 µM (inactive) | 43.9 µM (inactive) | 75.3 µM (inactive) |
| Cn1cc(NC(=O)c2cc(NC(=O)CCCCCCCCC(=O)Nc3cc(C(=O)Nc4cc(C(=O)NCCC(N)N)n(C)c4)n(C)c3)cn2C)cc1C(=O)NCCC(=N)N | 17.9 µM (inactive) | 24.7 µM (inactive) | 20 µM (inactive) | 24.5 µM (inactive) | 18.5 µM (inactive) | 36.9 µM (inactive) | 0.935 µM (active) | 25.8 µM (inactive) | 33.9 µM (inactive) | 8.99 µM (inactive) | 21.4 µM (inactive) | 22.6 µM (inactive) | 21.4 µM (inactive) | 19.6 µM (inactive) | 18.2 µM (inactive) | 17 µM (inactive) | 13.7 µM (inactive) | 20.7 µM (inactive) | 28.2 µM (inactive) | – |
| COc1cc2ccc3c4cc(OC)c(OC(C)C)cc4cnc3c2cc1OC | > 100 µM (inactive) | > 100 µM (inactive) | > 100 µM (inactive) | > 100 µM (inactive) | > 100 µM (inactive) | > 100 µM (inactive) | > 100 µM (inactive) | > 100 µM (inactive) | > 100 µM (inactive) | > 100 µM (inactive) | > 100 µM (inactive) | > 100 µM (inactive) | > 100 µM (inactive) | > 100 µM (inactive) | > 100 µM (inactive) | > 100 µM (inactive) | > 100 µM (inactive) | > 100 µM (inactive) | > 100 µM (inactive) | – |
| CCCCCCCCCC(=O)CC(=O)c1ccc(O)cc1O | 28.6 µM (inactive) | 21.3 µM (inactive) | 26.1 µM (inactive) | 31.5 µM (inactive) | 21.4 µM (inactive) | 17.5 µM (inactive) | 52.6 µM (inactive) | 24.3 µM (inactive) | 25.6 µM (inactive) | 18.6 µM (inactive) | 22.6 µM (inactive) | 26.5 µM (inactive) | 37 µM (inactive) | 36.5 µM (inactive) | 40.8 µM (inactive) | 26.9 µM (inactive) | 28.8 µM (inactive) | 21.2 µM (inactive) | 19.7 µM (inactive) | – |
| Cn1cc(NC(=O)c2cc(NC(=O)c3cc(NC=O)cn3C)cn2C)cc1C(=O)NCCC(=N)N [STALLIMYCIN] | > 100 µM (inactive) | – | > 100 µM (inactive) | > 100 µM (inactive) | > 100 µM (inactive) | > 100 µM (inactive) | 25.5 µM (inactive) | 7.87 µM (inactive) | > 100 µM (inactive) | – | > 100 µM (inactive) | > 100 µM (inactive) | > 100 µM (inactive) | > 100 µM (inactive) | > 100 µM (inactive) | > 100 µM (inactive) | > 100 µM (inactive) | 61.4 µM (inactive) | > 100 µM (inactive) | > 100 µM (inactive) |
